These compounds were tested against Telomerase reverse transcriptase (Homo sapiens, UniProt O14746) (assay: Inhibitory activity against human telomerase).
Sequence of Telomerase reverse transcriptase (O14746 whole entry): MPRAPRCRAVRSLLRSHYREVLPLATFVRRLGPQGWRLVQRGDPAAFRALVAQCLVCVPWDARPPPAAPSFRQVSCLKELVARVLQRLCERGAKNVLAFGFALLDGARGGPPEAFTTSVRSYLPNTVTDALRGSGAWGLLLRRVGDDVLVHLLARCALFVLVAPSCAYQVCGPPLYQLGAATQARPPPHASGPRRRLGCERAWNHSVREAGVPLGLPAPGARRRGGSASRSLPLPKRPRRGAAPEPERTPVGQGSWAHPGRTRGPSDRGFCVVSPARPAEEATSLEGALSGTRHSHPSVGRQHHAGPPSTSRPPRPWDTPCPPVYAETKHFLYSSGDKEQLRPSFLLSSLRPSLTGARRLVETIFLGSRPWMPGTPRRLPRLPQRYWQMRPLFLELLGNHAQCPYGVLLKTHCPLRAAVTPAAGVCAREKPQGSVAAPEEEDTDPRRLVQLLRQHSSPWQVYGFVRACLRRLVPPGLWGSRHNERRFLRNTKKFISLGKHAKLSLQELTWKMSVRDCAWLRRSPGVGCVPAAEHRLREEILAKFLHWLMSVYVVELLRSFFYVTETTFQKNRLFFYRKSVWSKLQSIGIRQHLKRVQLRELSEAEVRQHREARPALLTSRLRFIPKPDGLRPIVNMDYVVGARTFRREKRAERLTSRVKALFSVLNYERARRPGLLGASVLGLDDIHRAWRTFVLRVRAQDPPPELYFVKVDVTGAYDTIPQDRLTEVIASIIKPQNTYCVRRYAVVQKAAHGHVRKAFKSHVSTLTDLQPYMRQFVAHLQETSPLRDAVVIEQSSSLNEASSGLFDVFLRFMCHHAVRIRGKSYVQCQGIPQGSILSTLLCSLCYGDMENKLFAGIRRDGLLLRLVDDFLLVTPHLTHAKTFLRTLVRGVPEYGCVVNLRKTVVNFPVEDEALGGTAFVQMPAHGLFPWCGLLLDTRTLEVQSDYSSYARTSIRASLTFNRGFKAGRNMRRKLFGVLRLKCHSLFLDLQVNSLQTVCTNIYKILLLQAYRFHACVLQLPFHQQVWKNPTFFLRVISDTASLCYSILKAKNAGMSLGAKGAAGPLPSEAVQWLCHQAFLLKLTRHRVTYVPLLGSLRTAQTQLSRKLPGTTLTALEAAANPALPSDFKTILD

Structure (SMILES)	IC50 [nM]
Cc1cn([C@H]2C[C@H](OP(=O)(O)OC[C@H]3O[C@@H](n4cnc5c(N)ncnc54)C[C@@H]3OP(=O)(O)OC[C@H]3O[C@@H](N4C=NC5C(=O)N=C(N)N=C54)C[C@@H]3OP(=O)(O)OC[C@H]3O[C@@H](N4C=NC5C(=O)N=C(N)N=C54)C[C@@H]3OP(=O)(O)OC[C@H]3O[C@@H](N4C=NC5C(=O)N=C(NC(=O)O)N=C54)C[C@@H]3O)[C@@H](COP(=O)(O)ON)O2)c(=O)[nH]c1=O (some centres undefined)	1160
Cc1cn(C2CC(OP(=O)(O)OCC3OC(n4cnc5c(N)ncnc54)CC3OP(=O)(O)OCC3OC(n4cnc5c(=O)[nH]c(N)nc54)CC3OP(=O)(O)OCC3OC(n4cnc5c(=O)[nH]c(N)nc54)CC3OP(=O)(O)OCC3OC(n4cnc5c(=O)[nH]c(N)nc54)CC3O)C(COP(=O)(O)C(=O)[C@H](CS)NC(=O)[C@H](CCCCN)NC(=O)[C@H](CCCCN)NC(=O)[C@H](CCCCN)NC(=O)[C@H](CCCCN)NC(=O)[C@H](CCCCN)NC(=O)[C@H](C)N)O2)c(=O)[nH]c1=O (some centres undefined)	290
Cc1cn(C2CC(OP(=O)(O)OCC3OC(n4cnc5c(N)ncnc54)CC3OP(=O)(O)OCC3OC(n4cnc5c(=O)[nH]c(N)nc54)CC3OP(=O)(O)OCC3OC(n4cnc5c(=O)[nH]c(N)nc54)CC3OP(=O)(O)OCC3OC(n4cnc5c(=O)[nH]c(N)nc54)CC3O)C(COP(=O)(O)C(=O)[C@H](CS)NC(=O)[C@H](CCCNC(=N)N)NC(=O)[C@H](CCCNC(=N)N)NC(=O)[C@H](CCCNC(=N)N)NC(=O)[C@H](CCCNC(=N)N)NC(=O)[C@H](CCCNC(=N)N)NC(=O)[C@H](C)N)O2)c(=O)[nH]c1=O (some centres undefined)	140
Cc1cn(C2CC(OP(=O)(O)OCC3OC(n4cnc5c(N)ncnc54)CC3OP(=O)(O)OCC3OC(n4cnc5c(N)nc(N)nc54)CC3OP(=O)(O)OCC3OC(n4cnc5c(O)nc(N)nc54)CC3OP(=O)(O)OCC3OC(n4cnc5c(O)nc(N)nc54)CC3O)C(COP(=O)(O)C(=O)[C@H](CS)NC(=O)[C@H](CCCN)NC(=O)[C@H](CCCN)NC(=O)[C@H](CCCN)NC(=O)[C@H](CCCN)NC(=O)[C@H](CCCN)NC(=O)[C@H](C)N)O2)c(=O)[nH]c1=O (some centres undefined)	450

Source: ChEMBL document CHEMBL1132041, “Inhibition of human telomerase by PNA-cationic peptide conjugates” (Bioorg Med Chem Lett, 1999)
